The subject of one assay is cardiac allograft. The experiment in a line: Heterotopic heart transplant model of CAV with PC vaccination. The format is in vivo, mice. The conditions noted are these: mouse model of heart transplantation. As to the method: In addition to the mechanisms underlying MΦ differentiation and the effect of NAbs thereon, it is also important to identify what artheroprotective effect (if any) a PC vaccination may have in vivo. In an attempt to determine if experimental induction of IgM anti-PC NAbs have a beneficial effect on graft rejection and survival, experiments were conducted in an in vivo heart transplant model to measure such antibodies' affect on CAV and graft survival. Specifically, heart transplants and experimental vaccination were performed in normal mice (C57BL/6) and in IgM-deficient mice. Thereafter, IgM antibody response was measured, and a determination made as to what (if any) effect the vaccination had on graft survival.
The study used a 2×3 factorial design to test the (a) main effect of immunization defined by 3 conditions: experimental vaccination vs. negative control (vaccination with KLH vehicle) vs. positive control (intra-peritoneal mouse polyclonal IgM); and (b) main effect of mouse genotype—normal C57BL/6 vs. IgM-deficient mice—on cardiac graft rejection (see Table 2). […]
All mice underwent heart transplantation at 16 weeks of age, 8 weeks after initial vaccination. […] Cardiac allograft viability was thereafter assessed by daily abdominal palpation. […]
Graft survival curves were calculated in accordance with the Kaplan-Meier method. […]

Another assay relates to IgM anti-PC NAbs. As to the kind of experiment: PC-KLH immunization of mice, serum IgM anti-PC by ELISA. The format is in vivo. The text has this:
In group 1, normal C57BL/6 mice (IgG+IgM producers) were immunized by PC-keyhole limpet hemocyanin (PC-KLH) to induce anti-PC NAb production. In group 2, IgM-deficient mice that have impaired IgM antibody production, but still have an IgG response were immunized.
As controls for PC immunization, mice of the same genotypes were vaccinated with KLH. These procedures define the conditions of a 2×2 factorial design, as depicted in Table 1, with 2 immunization conditions (PC or KLH), and 2 mouse genotypes (normal C57BL/6 and IgM-deficient). Eight weeks after immunization, all mice were euthanized by CO2 inhalation. Mouse sera from these animals was subsequently used to conduct the two in vitro studies. Additionally, the mouse serum IgM-anti-PC was analyzed using custom ELISA. Specifically, to establish the inflammatory milieu in the mouse sera used for the in vitro experiments, the sera was analyzed for pro-inflammatory TNF-α, IFN-γ, IL-1β, IL-6, IL-12 and anti-inflammatory IL-10 IL-4, IL-13, and TGF-β cytokines (SearchLight Multiplex Assay System, Aushom Biosystems).

Assay [1] concerns IgM in human heart biopsies. The experiment in a line: Displacement (elution) of IgM from human heart transplant biopsies. The conditions noted are these: for removal of IgM from heart biopsies by incubation: PC 50 mM, CRP 2.58 mg/ml, albumin 1 mg/ml; for vascular IgM in biopsy after incubation (immunohistochemistry): displacement experiments; for IgM anti-PC in biopsy eluates (ELISA): eluates after incubation of biopsies; for IgM in western blots of biopsy eluates: following incubation of biopsies. It is filed as binding. As to the method: To verify if the IgM removed from the heart biopsies is PC-specific, ELISA was performed.
One hundred and seventy-two (172) adult heart transplant patients (having a number of serial biopsies per patient in first three months post-transplant) were followed for several years and subsequently analyzed. CAV was diagnosed with serial angiographies for each patient. The percentage of microvascular IgM was quantified with double staining (IgM/CD31 or Ulex europaeus lectin). IgM and IgM anti-phosphorylcholine (PC) from biopsy eluates were determined with immunoblotting and enzyme-linked immunosorbent assays (ELISAs). Statistical analyses used univariate logistic regression, multivariate stepwise models, and Kaplan-Meier curves for different tertile groups.
A general note: In an ELISA, binding on a coated surface is turned into a signal by an enzyme label.

Assay [2] has as its system human aortic and microvascular endothelial cells. The experiment in a line: Incubation of cultured endothelial cells with CRP (cell activation). The settings on record: incubation with CRP vs controls without CRP. The format is cell-based. The text has this:
Additionally, note the absence of ICAM-1 (subpart A of FIG. 7) and NF-κB nuclear expression (subpart C of FIG. 7) in the controls that lacked CRP exposure.

Results on 2 compounds are retold here after patent US11065319B2, “Methods for diagnosing and reducing incidences of cardiac allograft rejection” (3DT Holdings, LLC, priority 2014, dated 2021).

“And” between values parts separate entries of the source, which are not always exact repeats. Equal entries are not always repeated. “Also recorded” adds a separate entry of the source.

Take `C[N+](C)(C)CCOP(=O)(O)O` [PC, phosphorylcholine]: the graft survival entry in the assay on cardiac allograft is “positive effect on graft survival”. Further, in the assay on IgM anti-PC NAbs, the “production of specific IgM anti-PC NAbs” value is given as “induced the production of specific IgM anti-PC NAbs”. For the same compound, in assay [1], the “removal of IgM from heart biopsies by incubation” value is given as “removed IgM from the biopsies; also recorded: can be removed”; the “vascular IgM in biopsy after incubation (immunohistochemistry)” value is on record as “removal of IgM; also recorded: showed biopsy removal”; the “IgM anti-PC in biopsy eluates (ELISA)” value is 56.67±19.96 U/ml and 56.7±20.0 U/ml; the “IgM in western blots of biopsy eluates” value is reported as “showed IgM”.

“CRP: C-reactive protein, pro-inflammatory molecule”: in assay [2], the ICAM-1 expression result is on record as “increased ICAM-1 expression” and the NF-κB nuclear localization entry is “nuclear factor-kappa B (NF-κB) nuclear localization”. Moreover, in assay [1], the “removal of IgM from heart biopsies by incubation” value is recorded as “removed IgM from the biopsies; also recorded: can be removed”; the “vascular IgM in biopsy after incubation (immunohistochemistry)” value is on record as “removal of IgM; also recorded: showed biopsy removal”; the “IgM anti-PC in biopsy eluates (ELISA)” value was 60.49±18.26 U/ml and 60.5±18.3 U/ml; the “IgM in western blots of biopsy eluates” value is “showed IgM”.
